PMC3646298 (Pharmaceutical research, 2012)
Where two headings read alike, the source gives them in different places.

What was measured:
Du-145 = conditions: read-out: Cytotoxicity IC50, ref Ahn et al., MCT 9:2959, 2010 ([33]); cited from earlier work
PC-3/TxR tumors = assay: Paclitaxel-resistant PC-3/TxR tumor xenograft study; format: in vivo, nude mice; conditions: for Body weight End / TGI / Body weight Start: PC-3/TxR xenograft
PC-3 tumors = assay: PC-3 tumor xenograft study; format: in vivo, nude mice; conditions: PC-3 xenograft, day 1 and 9, end point day 19
PPC-1 [1] = conditions: read-out: Cytotoxicity IC50, ref Ahn et al., MCT 9:2959, 2010 ([33]); cited from earlier work
LNCaP = conditions: read-out: Cytotoxicity IC50, ref Ahn et al., MCT 9:2959, 2010 ([33]); cited from earlier work
PC-3/TxR [2] = assay: Apoptosis; format: cell-based, human; conditions: 0.8–600 nmol/L, 24 h
PC-3 = assay: Apoptosis; format: cell-based, human; conditions: PC-3, 0.8–600 nmol/L, 24 h
PC-3/TxR [3] = assay: SRB cytotoxicity assay in paclitaxel-resistant PC-3/TxR; format: cell-based, human
U87MG = assay: SRB cytotoxicity assay in U87MG glioma; format: cell-based, human; conditions: read-out: Cytotoxicity IC50, 96 h treatment, mean ± SD, N=3
in vitro = conditions: human, Caco-2
[4] = Paclitaxel-resistant PC-3/TxR tumor xenograft study; format: in vivo, nude mice; conditions: male, athymic nude, mouse, tumor, po, 30 mg/kg
[5] = Pharmacokinetic study in rats; conditions: female, Sprague-Dawley, rat, plasma, po, 10 mg/kg
in vivo [6] = conditions: male (mice), female (rats, dogs), ICR (mouse), Sprague-Dawley (rat), beagle (dog), po
[7] = molecular target: colchicine-binding site on tubulin (Sus scrofa, UniProt P02550+P02554); assay: Competitive mass spectrometry binding assay; parameters: species or system porcine; conditions: tubulin 1 mg/mL, competitor 0.2–200 μM
in vivo [8] = conditions: female, beagle, dog, plasma, po, 5 mg/kg
PPC-1 [9] = assay: SRB cytotoxicity assay in PPC-1; format: cell-based; conditions: Homo sapiens, PPC-1, 96 h, read-out: Cytotoxicity IC50
[10] = cited from earlier work
[11] = IV 10 mg/kg, day 1 and 9, end point day 19
[12] = IV 20 mg/kg, day 1 and 9, end point day 19
[13] = PO 10 mg/kg, b.i.d×5/w, end point day 26

CC(=O)O[C@@]12CO[C@@H]1C[C@H](O)[C@@]1(C)C(=O)[C@H](O)C3=C(C)[C@@H](OC(=O)[C@H](O)[C@@H](NC(=O)OC(C)(C)C)c4ccccc4)C[C@@](O)([C@@H](OC(=O)c4ccccc4)[C@H]21)C3(C)C [Docetaxel]
IC50 (Du-145): 5.2 ± 1 nM
Body weight End (PC-3/TxR tumors; [11]): 25 ± 2 g
TGI (PC-3/TxR tumors; [11]): 14%
Body weight End (PC-3/TxR tumors; [12]): 25 ± 4 g
TGI (PC-3/TxR tumors; [12]): 56%
Body weight End (PC-3 tumors; IV 10 mg/kg): 24 ± 2 g
Body weight End (PC-3 tumors; IV 20 mg/kg): 24 ± 3 g
IC50 (PPC-1 [1]): 2.7 ± 1 nM
IC50 (LNCaP): 4.7 ± 1.3 nM
induction of cell apoptosis (DNA histone complex formation) (PC-3/TxR [2]): substantially weaker
induction of cell apoptosis (DNA histone complex formation) (PC-3): potently induced cell apoptosis
Resistance factor (IC50 in PC-3/TxR compared with PC-3) (PC-3/TxR [3]): 15
IC50 (PC-3/TxR [3]; Homo sapiens, PC3-TxR, 96 h, read-out: Cytotoxicity IC50): 18 ± 0.7 nM

COc1cc(C(=O)c2csc(Nc3ccc4[nH]ccc4c3)n2)cc(OC)c1OC [IAT, (2-(1H-indol-5-ylamino)-thiazol-4-yl)(3,4,5-trimethoxyphenyl)methanone]
IC50 (U87MG): 22 ± 30 nM
Papp A→B (in vitro): 99 ×10⁻⁶ cm/s
Kp at 1 h [4]: 0.43 ± 0.33
Body weight Start (PC-3/TxR tumors; PO 10 mg/kg, b.i.d×5/w): 29 ± 2 g
Body weight End (PC-3/TxR tumors; [13]): 26 ± 3 g
TGI (PC-3/TxR tumors; [13]): 59%
Body weight Start (PC-3/TxR tumors; PO 30 mg/kg, b.i.d×5/w): 29 ± 3 g
Body weight End (PC-3/TxR tumors; PO 30 mg/kg, b.i.d×5/w, end point day 26): 30 ± 2 g
Tumor growth inhibition (PC-3/TxR tumors; paclitaxel-resistant prostate cancer xenograft, treated orally at doses of 3–30 mg/kg): greater than 100%
bioavailability [5]: 24%
induction of cell apoptosis (DNA histone complex formation) (PC-3/TxR [2]): equally potent in their ability to induce cell apoptosis
induction of cell apoptosis (DNA histone complex formation) (PC-3): equally potent in their ability to induce cell apoptosis
bioavailability (in vivo [6]): 24 to 36%
competition with colchicine for tubulin binding [7]: competed effectively with colchicine for tubulin binding
bioavailability (in vivo [8]): 36%

CC(=O)O[C@H]1C(=O)[C@@]2(C)[C@H]([C@H](OC(=O)c3ccccc3)[C@]3(O)C[C@H](OC(=O)[C@H](O)[C@@H](NC(=O)c4ccccc4)c4ccccc4)C(C)=C1C3(C)C)[C@]1(OC(C)=O)CO[C@@H]1C[C@@H]2O [Paclitaxel]
IC50 (PPC-1 [9]): 23 ± 0.8 nM

COc1cc(C(=O)c2csc(-c3ccccc3)n2)cc(OC)c1OC [SMART-H, 4-(3,4,5-trimethoxybenzoyl)-2-phenyl-thiazole]
neurotoxicity [10]: did not find any signs of obvious neurotoxicity

CC[C@]1(O)C[C@@H]2CN(CCc3c([nH]c4ccccc34)[C@@](C(=O)OC)(c3cc4c(cc3OC)N(C)[C@H]3[C@@](O)(C(=O)OC)[C@H](OC(C)=O)[C@]5(CC)C=CCN6CC[C@]43[C@@H]65)C2)C1 [Vinblastine]
competition with colchicine for tubulin binding [7]: did not inhibit colchicine binding to tubulin
